Test results from patent US7820625B2, “UV-induced dermatitis inhibitor and atopic dermatitis inhibitor” (National Institute of Advanced Industrial Science and …, priority 2005, dated 2010).
Where a SMILES comes first, the peptide text is derived from it. Where no end group is shown, it is not given here.

Assays:
[1] = test system: Hos:HR-1 mice (UVB-irradiated back skin); assay: UVB-irradiated mouse back skin; amount of water evaporation (Tewameter TM300) to evaluate the barrier function of keratin; assay type: in vivo; details: for rate of increase in the total amount of water evaporation from the 1st day to the 10th day after UVB irradiation: 1 mg/ml ointment, increase of Comparative Example (5-2) over non-irradiated (5-1) defined as 100%
Method: A GPIGS [SEQ ID NO: 6] solution (1) was prepared in the same way as in Example 1.
Mice used were 10-week-old mice (produced by Japan SLC. Inc, Hos:HR-1 line) raised for 1 week or longer in the breeding room of National Institute of Advanced Industrial Science and Technology and acclimatized.
The backs of the mice fixed under pentobarbital anesthesia were irradiated with 150 mJ/cm^2 UVB for 5 days (once a day) to cause skin damage. A 100 μl portion of the drug solution was applied once a day immediately after UVB irradiation to each of the skin surfaces of the backs. An amount of water evaporation in the skin surfaces of the backs was measured with Tewameter TM300 (manufactured by Courage+Khazaka electronic GmbH.) to evaluate the barrier function of keratin.
All the experiments were conducted using four mice.
The data in FIG. 2 are indicated with mean±standard deviation (mean±S.E.). Statistical analysis was conducted by Student's t-test (Stat View J-4.02, Abacus Concepts Inc.). A significant level less than 5% (p<0.05) means that a significant difference is present. In this context, the open triangle denotes (2-1) without UVB irradiation; x denotes (2-2) (Comparative Example) using a solution containing the GPIGS [SEQ ID NO: 6] solution (1) except for GPIGS [SEQ ID NO: 6]; and the solid diamond denotes Example of the present application (2-3).

[2] = test system: BALB/c mice (DNFB-induced dermatitis, auricle skin); assay: DNFB-induced dermatitis in mouse earlobes; amount of water evaporation (Tewameter TM300) to evaluate the barrier function of keratin; assay type: in vivo
Method: A 1 mg portion of glycylprolylisoleucylglycylserine (SEQ ID NO: 6) (hereinafter, also referred to as “GPIGS”) (manufactured by AMERICAN PEPTIDE COMPANY, Inc., lot. CC-09-119) was weighed. This GPIGS [SEQ ID NO: 6] was dissolved by the addition of 300 μl of Otsuka distilled water for injection (manufactured by Otsuka Pharmaceutical Co., Ltd., cat. 322134). Then, this solution was mixed with 200 μl of propylene glycol (manufactured by Wako Pure Chemical Industries, Ltd., cat. 161-05006) and 500 μl of ethanol (manufactured by Wako Pure Chemical Industries, Ltd., cat. 057-00456) to prepare 1 mg/ml GPIGS [SEQ ID NO: 6] solution (1).
Seven-week-old mice (produced by Japan SLC. Inc, BALB/c line) were raised for 1 week and acclimatized.
A 10 μl portion (14.5 mg) of […] (manufactured by NACALAI TESQUE, INC., cat. 135-12) (DNFB) was added to 9.7 ml of (acetone:olive oil=3:1) solution to prepare 1.5 mg/ml DNFB solution.
A 25 μl portion of 1.5 mg/ml DNFB solution was applied five times (once a week) to each of the front and back sides of the left and right earlobes of the BALB/c mice (8-week-old).
From one day after the 4th DNFB solution application, 25 μl of the drug solution was applied once a day to each of the front and back sides of the left and right earlobes (in the 5th DNFB solution application, the GPIGS [SEQ ID NO: 6] solution (1) was applied 1 hour before DNFB application). Forty-eight hours after the 5th DNFB solution application, an amount of water evaporation in the auricle surfaces was measured with Tewameter TM300 (manufactured by Courage+Khazaka electronic GmbH.) to evaluate the barrier function of keratin (1-3) (the present invention).
The barrier function of keratin was also evaluated on (1-1) wherein the same procedures aforementioned were performed except that a (acetone:olive oil=3:1) solution was applied instead of the DNFB solution and (1-2) (Comparative Example) wherein the same procedures aforementioned were performed except that a solution containing the GPIGS [SEQ ID NO: 6] solution (1) except for GPIGS [SEQ ID NO: 6] was used.
All the experiments were conducted using five mice.
The data in FIG. 1 are indicated with mean±standard deviation (mean±S.E.). Statistical analysis was conducted by Student's t-test (Stat View J-4.02, Abacus Concepts Inc.). A significant level less than 5% (p<0.05) means that a significant difference is present.

[3] = 1 mg/ml solution (water/propylene glycol/ethanol), 25 μl once a day on earlobes, 48 h after 5th DNFB application, vehicle control 13.11 (GPIGS experiment), 9.29 (IGS experiment)

Row | Compound | rate of increase in the total amount of water evaporation from the 1st day to the 10th day after UVB irradiation [1] | amount of water evaporation [2, 3] | amount of water evaporation compared with Comparative Example (2-2) ([1]; 1 mg/ml solution, 100 μl once a day after 150 mJ/cm^2 UVB, following the fourth day after UVB irradiation) | amount of water evaporation ([2]; 1 mg/ml ointment (3-3), base ointment control 8.42, no DNFB 1.83) | amount of water evaporation ([2]; 3 mg/ml ointment (3-4), base ointment control 8.42, no DNFB 1.83) | barrier function of keratin compared with Example 1 ([2]; 3 mg/ml solution, otherwise as Example 1) | dermatitis of each mouse ([2]; ointment (10 mg GPIGS with Hiviswako 104, propylene glycol, diisopropanolamine, gentamycin, water), mice treated as in Examples 1 and 2)
1 | CC[C@H](C)[C@H](N)C(=O)NCC(=O)N[C@@H](CO)C(=O)O [IGS, isoleucylglycylserine] (H-Ile-Gly-Ser-OH) | 55.4% | 5.57 g/m^2/hr | – | – | – | – | –
2 | GPIGS [GPIGS, glycylprolylisoleucylglycylserine] | 82.1% | 11.30 g/m^2/hr | significantly lower | 5.23 g/m^2/hr | 3.89 g/m^2/hr | more excellent barrier function of keratin | improvement
